Measurements reported in patent publication US6426231B1 (priority 1998, dated 2002).
“And” between values parts separate entries of the source, which are not always exact repeats. Identical values can stand only once. “Also recorded” adds a separate entry of the source. Like-named read-outs stand apart in the source and are kept apart here.

Tests used:
αHL•βCD = αHL•βCD (Staphylococcus aureus, UniProt P09616); assay: biochemical; format: biochemical; details: for K^Af (formation constant of αHL•βCD•A) / ΔG of analyte binding to αHL•βCD: pH 3.0
Chain of αHL•βCD (P09616 27-319 limits assumed): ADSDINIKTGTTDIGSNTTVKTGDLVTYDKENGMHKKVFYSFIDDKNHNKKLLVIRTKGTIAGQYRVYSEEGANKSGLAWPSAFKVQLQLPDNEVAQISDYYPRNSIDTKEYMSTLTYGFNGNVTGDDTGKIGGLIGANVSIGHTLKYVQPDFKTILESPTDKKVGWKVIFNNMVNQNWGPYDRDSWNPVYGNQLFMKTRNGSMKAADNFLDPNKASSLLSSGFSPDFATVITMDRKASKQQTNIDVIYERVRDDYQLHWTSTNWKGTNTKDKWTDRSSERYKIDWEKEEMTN

[1] = format: binding; details: pH 3.0
αHL pore = αHL pore (Staphylococcus aureus, UniProt P09616); format: biochemical
Chain of αHL pore (P09616 27-319 limits assumed): as above

[2] = cited from earlier work
WT-αHL pore = WT-αHL pore (Staphylococcus aureus, UniProt P09616); format: biochemical; details: pH 7.5
Chain of WT-αHL pore (P09616 27-319 limits assumed): as above

Molecule: Cl.NC12CC3CC(CC(C3)C1)C2 [1-adamantanamine hydrochloride]
- (IP·C·A IP·C)/(IP·C·A-IP) (αHL•βCD): 0.294 ± 0.005
- Kd (αHL•βCD): 109 ± 4.95 µM
- Residence time (τ) of the analyte on αHL·βCD (αHL•βCD): 1.42 ± 0.14 ms

Molecule: NC(=O)C12CC3CC(CC(C3)C1)C2 [1-adamantanecarboxamide]
- (IP·C·A IP·C)/(IP·C·A-IP) (αHL•βCD): 0.333 ± 0.005
- Kd (αHL•βCD): 34.2 ± 2.77 µM
- Residence time (τ) of the analyte on αHL·βCD (αHL•βCD): 3.99 ± 0.18 ms

Molecule: O=C(O)C12CC3CC(CC(C3)C1)C2 [1-adamantanecarboxylic acid]
- K^Af (formation constant of analyte with βCD in solution) [1]: 5.76±1.50×10^4 M^−1
- ΔG of analyte binding to βCD in solution [1]: -6.5 kcal/mol
- binding to the pore without adapter/carrier (αHL pore): does not bind to the pore
- Literature ΔG for binding to βCD ([2]; pH 4.05): -7.5 kcal/mol
- Literature ΔG for binding to βCD ([2]; pH 7.2): -6.4 kcal/mol
- (IP·C·A IP·C)/(IP·C·A-IP) (αHL•βCD): 0.346 ± 0.005
- Kd (αHL•βCD): 7.53 ± 1.16 µM
- Residence time (τ) of the analyte on αHL·βCD (αHL•βCD): 14.0 ± 0.79 ms
- conductance of the partially blocked channel (αHL•βCD) with guest (αHL•βCD): 112.2 pS
- residence time (τ) of guest (αHL•βCD): 14.0 ms
- single channel current level, additional block of αHL•βCD (αHL•βCD): −4.7 pA
- K^Af (formation constant of αHL•βCD•A) (αHL•βCD): 1.35±0.19×10^5 M^−1
- ΔG of analyte binding to αHL•βCD (αHL•βCD): -7.0 kcal/mol

Molecule: OCCC12CC3CC(CC(C3)C1)C2 [1-adamantaneethanol]
- (IP·C·A IP·C)/(IP·C·A-IP) (αHL•βCD): 0.348 ± 0.003
- Kd (αHL•βCD): 3.33 ± 1.07 µM
- Residence time (τ) of the analyte on αHL·βCD (αHL•βCD): 30.6 ± 2.42 ms

Molecule: Cl.NC1C2CC3CC(C2)CC1C3 (stereo not shown) [2-adamantanamine hydrochloride]
- K^Af (formation constant of analyte with βCD in solution) [1]: 9.84±2.19×10^3 M^−1
- ΔG of analyte binding to βCD in solution [1]: -5.5 kcal/mol
- effect on the completely open channel (αHL pore; hydrochloride): does not affect; also recorded: no effect
- (IP·C·A IP·C)/(IP·C·A-IP) (αHL•βCD): 0.286 ± 0.004
- Kd (αHL•βCD): 98.6 ± 14.3 µM
- Residence time (τ) of the analyte on αHL·βCD (αHL•βCD): 2.54 ± 0.21 ms
- conductance of the partially blocked channel (αHL•βCD) with guest (αHL•βCD): 126.5 pS
- residence time (τ) of guest (αHL•βCD): 2.54 ms
- residence time of βCD•A on αHL compared with βCD (αHL•βCD): greater than βCD itself
- single channel current level, additional block of αHL•βCD (αHL•βCD): −5.7 pA
- K^Af (formation constant of αHL•βCD•A) (αHL•βCD): 1.03±0.15×10^4 M^−1
- ΔG of analyte binding to αHL•βCD (αHL•βCD): -5.5 kcal/mol

Molecule: CC(=O)NC12CC3CC(CC(C3)C1)C2 [N-(1-adamantyl)acetamide, N-(1-adamantyl)-acetamide]
- (IP·C·A IP·C)/(IP·C·A-IP) (αHL•βCD): 0.348 ± 0.003
- Kd (αHL•βCD): 14 ± 2.24 µM
- Residence time (τ) of the analyte on αHL·βCD (αHL•βCD): 7.32 ± 2.13 ms

Molecule: heptakis-6-sulfato-β-cyclodextrin [s7βCD]
- PK+/PNa+ (WT-αHL pore): 0.92
- dwell time (τ) of adapter on WT-αHL pore (WT-αHL pore): 846 ± 37 ms
- g (conductance) (WT-αHL pore): 53 pS and 53 ± 6 pS

Molecule: α-cyclodextrin
- block of the ionic current (αHL pore): reversible partial blocks

Molecule: β-cyclodextrin [βCD]
- block of the ionic current (αHL pore): reversible partial blocks
- partial block of the channel (αHL pore): 64%
- single channel current level with βCD bound (αHL pore): −11.5 pA
- K^Cf (equilibrium formation constant αHL•βCD) (αHL pore; pH 3): 475 M⁻¹
- conductance of αHL in the presence of βCD (αHL pore; pH 3): 272 pS
- k^Coff (αHL pore; pH 3): 115 s⁻¹
- k^Con (αHL pore; pH 3): 54600 M⁻¹ s⁻¹
- dwell time (τ) of adapter on WT-αHL pore (WT-αHL pore): 0.84 ms
- g (conductance) (WT-αHL pore): 240 pS and 240 ± 5 pS

Molecule: γ-cyclodextrin [γCD]
- block of the ionic current (αHL pore): reversible partial blocks
- g (conductance) (WT-αHL pore): 328 pS and 328 ± 4 pS
